Earlier results, collected in patent US5591773A, “Inhibition of cataract formation, diseases resulting from oxidative stress, and HIV replication by caffeic acid esters” (priority 1994, dated 1997).

Key:
[1] = test system: bovine lens (H2O2); conditions: cited from earlier work
[2] = test system: bovine lens (opacity); conditions: cited from earlier work
[3] = test system: tumor promotion; conditions: cited from earlier work
[4] = test system: HeLa cells; conditions: cited from earlier work
[5] = test system: mammalian cells; conditions: cited from earlier work
[6] = test system: TPA-induced oxidative processes (PMN infiltration, reactive oxygen species generation, DNA base oxidation); conditions: sarcophytol A 6.5 nmol, TPA 6.5 nmol/treatment; cited from earlier work

SMILES	inhibition of TPA-mediated H2O2 production, lens (in words) [1]	inhibition of TPA-mediated lens opacification (in words) [2]	anti-tumor promoting properties (in words) [3]	further results
O=C(O[C@@H]1Cc2c(O)cc(O)cc2O[C@@H]1c1cc(O)c(O)c(O)c1)c1cc(O)c(O)c(O)c1 [EGCG, (-)-epigallocatechin gallate]	effective inhibitors	effective inhibitors	known anti-tumor promoters	inhibition of TPA-induced oxidative processes (in words) ([4]; EGCG 50 nmol): less effective inhibition of TPA-induced oxidative processes; HMdUrd and 8-OHdGua levels (in words) ([4]; EGCG 5-25 nmol preincubation, TPA): contained lower levels of HMdUrd and 8-OHdGua than cells treated only with TPA
O=c1[nH]c(=O)n([C@H]2C[C@H](O)[C@@H](CO)O2)cc1CO [HMdUrd, 5-hydroxymethyl-2'-deoxyuridine]	–	–	–	cytotoxicity and mutagenicity (in words) [5]: cytotoxic and cytostatic to a number of mammalian cells and is mutagenic
O=C(O)/C=C/c1ccc(O)c(O)c1 [caffeic acid]	–	–	known anti-tumor promoters	–
COc1cc(/C=C/C(=O)CC(=O)/C=C/c2ccc(O)c(OC)c2)ccc1O [curcumin]	–	–	known anti-tumor promoters	–
C/C1=C\C=C(\C(C)C)[C@@H](O)C/C(C)=C/CC/C(C)=C/CC1 [sarcophytol A]	effective inhibitors	effective inhibitors	known anti-tumor promoters	inhibition of TPA-induced oxidative processes (in words) [6]: potent inhibitor
